Test results from ChEMBL document CHEMBL4665865, “New series of isoxazole derivatives targeting EGFR-TK: Synthesis, molecular modeling and antitumor evaluation” (Bioorg Med Chem, 2020).

Legend:
HCT-116 [1] = test: Induction of cell cycle arrest in human HCT-116 cells assessed as aggregates at antiproliferative IC50 by PI staining based flow cytometric analysis (reference value: 1.61%); format: functional; conditions: time 24 hrs
Tubulin (Homo sapiens) = Tubulin (Homo sapiens) (UniProt P68371+Q9H4B7+P0DPH7+P68366+Q13509+Q71U36+P04350+Q3ZCM7+P07437+P68363+Q9BQE3+Q6PEY2+Q13885+Q9BVA1+Q9BUF5); test: Inhibition of tubulin polymerization (unknown origin) at 10 uM relative to control; format: protein-complex assay
HepG2 [2] = test: Induction of apoptosis in human HepG2 cells assessed as necrotic cells at antiproliferative IC50 incubated for 24 hrs by annexin V FITC and propidium iodide staining based flow cytometry (reference value: 0.52 %); format: functional
HepG2 [3] = test: Induction of apoptosis in human HepG2 cells assessed as late apoptotic cells at antiproliferative IC50 incubated for 24 hrs by annexin V FITC and propidium iodide staining based flow cytometry (reference value: 0.31 %); format: functional
HCT-116 [4] = test: Induction of cell cycle arrest in human HCT-116 cells assessed as accumulation of cells at G0/G1 phase at antiproliferative IC50 by PI staining based flow cytometric analysis (reference value: 48.52%); format: functional
MCF7 = test: Induction of cell cycle arrest in human MCF7 cells assessed as accumulation of cells at G2/M phase at antiproliferative IC50 by PI staining based flow cytometric analysis (reference value: 10.95%); format: functional
HCT-116 [5] = test: Induction of cell cycle arrest in human HCT-116 cells assessed as accumulation of cells at S phase at antiproliferative IC50 by PI staining based flow cytometric analysis (reference value: 35.61%); format: functional
HepG2 [6] = test: Antitumor activity against human HepG2 cells assessed as inhibition of cell viability by MTT assay; format: functional, cell-based
HCT-116 [7] = test: Induction of cell cycle arrest in human HCT-116 cells assessed as accumulation of cells at G2/M phase at antiproliferative IC50 by PI staining based flow cytometric analysis (reference value: 15.87%); format: functional

Molecule `Cc1cc(NC2=NC(=O)/C(=C\c3c4ccccc4cc4ccccc34)S2)no1` has an Activity (HCT-116 [1]) of 1.74%, an inhibition (Tubulin (Homo sapiens)) of 57.7% and an Activity (HepG2 [2]) of 1.77%. The Activity (HepG2 [3]) was 8%, the Activity (HCT-116 [4]) was 29.67% and the Activity (MCF7) was 29.3%. It also gave an Activity (HCT-116 [5]) of 27.44%, an IC50 (HepG2 [6]) of 6.86 µM and an Activity (HCT-116 [7]) of 42.89%.
